Laboratory results from US20200206354A1, “DRUG DELIVERY COMPOSITION” (PK MED SAS, priority 2017, published 2020).
Values joined by “and” are separate entries in the source; they are usually repeats but may differ in a detail not shown here. Equal values may be shown once. Where a name gives a salt, the structure may show the parent alone.

Key:
[1] = Drug integrity after extrusion and release, HPLC peaks compared with non-extruded drug
Description: An Ultimate 3000 HPLC system (Thermofisher Scientific) equipped with Diode Array Detector (DAD-3000(RS)) and a Phenomenex Kinetex EVO C18, LC Column 100×2.1 mm, 2.6 μm with a pore size of 100 Å. The column was controlled to a temperature of 30° C. The mobile phase was a gradient of Ammonium Bicarbonate 20 mM pH9/Acetonitrile (95/5% to 35/65 in 5 min) with a flow rate of 0.75 mL/min. Naltrexone hydrochloride powder was accurately weighed and dissolved in water to give 450 μg/mL solution. Subsequent dilutions were made with water to get concentrations of 7-450 μg/mL. The standard solutions prepared as above were injected in the same conditions of samples. The peak areas of the naltrexone concentration were calculated. The regression of the naltrexone concentration over the peak areas was obtained and used to estimate the amount of naltrexone released from the polymer.

[2] = lysozyme powder from Sigma-Aldrich; cited from earlier work
[3] = Lysozyme activity after extrusion, liquid-liquid extraction and Lysozyme activity Kit; type: biochemical
Description: The lysozyme was extracted from the drug delivery composition by liquid-liquid extraction. 50 mg of drug delivery composition were solubilized in 2.5 mL of Dichloromethane. Then 7.5 mL of cold 66 mM potassium phosphate buffer pH6.24 was added. The mix was vigorously vortex. Samples were maintained in ice between each step. After phase separation, aqueous phase was taken off and lysozyme activity was measured using Lysozyme activity Kit (from Sigma-Aldrich).
The lysozyme was extracted from the drug delivery composition by liquid-liquid extraction as described in Example 4 and lysozyme activity was titrated with lysozyme activity kit (from Sigma-Aldrich).

Row | Compound | degradation of the released drug by the PLA-degrading enzyme ([1]; drug delivery composition with Savinase®) | degradation of naltrexone through the extrusion process ([1]; extruded in PLA at 168° C.) | denaturation temperature [2] | lysozyme activity after two extrusions (in words) ([3]; Example 4 composition (PLA, PCL masterbatch, Savinase®), extrusions at 78° C. and 165° C., results not shown) | lysozyme activity retained after extrusion ([3]; Example 5.2 composition, 50% PCL and 50% lysozyme, extruded at 78° C.)
1 | O=C1CC[C@@]2(O)[C@H]3Cc4ccc(O)c5c4[C@@]2(CCN3CC2CC2)[C@H]1O5 [naltrexone, naltrexone hydrochloride] | without any degradation | not degraded | – | – | –
2 | lysozyme: lysozyme powder from Sigma-Aldrich, 14.7 kDa protein used as model drug | – | – | 76 °C and 74 °C | still exhibits activity | 95%
